Active and inactive are the calls of the source.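 How the source made its calls: active means maximum inhibition above 50% at any tested concentration, with a dose response curve fitted; inactive means no inhibition at any concentration or no dose response curve.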
Biological target: TRPC4 (transient receptor potential cation channel C4), mouse
Assay: blockers of mouse TRPC4 cation channel – cell-based, concentration-response, SAR follow-up (AID 652179)
Conditions: HEK293 TRPC4/mu-opioid cells, Fluo-4 calcium fluorescence ratio

| Compound | IC50 [µM] |
| --- | --- |
| Cc1cc(N2CCC(F)CC2)nc2ccccc12 | 10.2 |
| C[C@H]1CCCN1c1ccc2ccccc2n1 | 14.9 |
| c1ccc2nc(N3CCCCC3)ccc2c1 | 4.61 |
| Cc1cc(N2CCC(F)(F)CC2)nc2ccccc12 | 10.6 |
| Cc1cc(N2CCCC(F)C2)nc2ccccc12 (stereo unspecified) | 12.6 |
| Cc1cc(N2CCCCC2)nc2ccccc12 | 1.53 |

Same assay, conditions: HEK293 TRPC4/mu-opioid cells, Fluo-4 calcium fluorescence ratio; at 20 µM (top of the series)

| Compound | fluorescence ratio, lower = inhibition |
| --- | --- |
| OC1CCN(c2ccc3ccccc3n2)CC1 | inactive |
| Cc1cc(-n2ccnc2)nc2ccccc12 | inactive |
| Cc1cc(N2CCC(=O)CC2)nc2ccccc12 | inactive |
| OC1CCN(c2ccc3ccccc3n2)C1 (stereo unspecified) | inactive |
| FC1CCCN(c2ccc3ccccc3n2)C1 (stereo unspecified) | inactive |
| FC1(F)CCN(c2ccc3ccccc3n2)CC1 | inactive |
| c1ccc2nc(N3CCCC3)ccc2c1 | inactive |
| Cc1cc(-n2cccc2)nc2ccccc12 | inactive |
| FC1CCN(c2ccc3ccccc3n2)CC1 | inactive |
| OC1CCCN(c2ccc3ccccc3n2)C1 (stereo unspecified) | inactive |
| Cc1cc(N2CCC(O)C2)nc2ccccc12 (stereo unspecified) | inactive |
| Cc1cc(-n2cccn2)nc2ccccc12 | inactive |
| Cc1cc(N2CCC(O)CC2)nc2ccccc12 | inactive |
| O=C1CCN(c2ccc3ccccc3n2)CC1 | inactive |
| Cc1cc(N(C)C)nc2ccccc12 | inactive |
